# Tests used:
# [1] = tested on: histamine release (CRA-1 anti human FcεRI stimulated human whole blood cells); assay: Histamine release suppression test using human whole blood; format: cell-based; settings: for histamine release suppression rate: N=3, mean ± SD
# Description: Human whole blood was collected from healthy volunteers and heparin was added thereto. A blood sample was prepared by adding 6 parts by weight of a histamine release buffer (Immunotech) to 1 part by weight of the whole blood to which the heparin had been added. 200 μl of the blood sample and 100 μl of a histamine release buffer comprising astragalin (33 μM), kaempferol (33 μM) or epinephrine (1638 μM or 4917 μM) were placed in an Eppendorf tube and allowed to stand for 30 minutes while cooling in ice (final concentration: 11 μM for astragalin, 11 μM for kaempferol, 546 μM or 1639 μM for epinephrine).
# Centrifugal separation (3000 rpm, 5 minutes, 4° C.) was then carried out and the supernatant removed, and the resulting cells were again put into 300 μl of a histamine release buffer. 4.5 μl of 1 mg/ml CRA-1 (an anti human FcεRI receptor antibody, Cosmo Bio) was next added to the mixture (final CRA-1 concentration 15 μg/ml), and incubation was carried out for 30 minutes at 37° C. After centrifugation (3000 rpm, 10 minutes, 4° C.), the amount of histamine in the supernatant was measured using a histamine EIA kit (Immunotech). The histamine release suppression rate (%) was then calculated using undermentioned equation 3 from histamine amounts calculated from a calibration curve. The measurements were carried out with N=3, and the measurement values were represented by the mean and standard deviation.
# [formula] A: Amount of histamine released from cells to which astragalin/kaempferol/epinephrine added (n mole) B: Amount of histamine released from untreated cells (n mole) C: Amount of histamine released from cells to which only CRA-1 added (n mole)
# [2] = tested on: passive cutaneous anaphylaxis (auricula swelling); assay: Suppression of passive cutaneous anaphylaxis (PCA) in mice; format: in vivo, ddY male mice; settings: astragalin 1.25 mg/kg oral
# Description: Ten 5-week-old ddY male mice were purchased from Japan SLC, and were reared at a room temperature of 23±3° C. and a humidity of 55±15%, with a 12 hour light-dark cycle (light period 7:00 to 19:00). The mice were kept 5 to a cage, and were fed a standard diet (Labo MR Stock, Nihon Nosan Kogyo K.K.) for a 7-day preliminary period, before being divided into a group to be administered astragalin and a control group each of 5 mice. A 0.025% (w/v) solution of astragalin in distilled water was forcedly orally administered (1.25 mg/5 ml/kg) to the astragalin-administered group using a metal stomach tube, while distilled water was forcedly orally administered (5 ml/kg) to the control group. One hour after the administration, 20 μl of an anti-DNP mouse IgE antibody (10 μg/ml) was intracutaneously injected into the right auricula and 20 μl of physiological saline into the left auricula of each mouse. 24 hours after the intracutaneous injections, 100 μl of DNP-BSA (1 mg/ml) was intravenously injected into the tail of each mouse. 15 minutes later, the thicknesses of the left and right auriculae of each mouse were measured three times using a thickness gauge (Ozaki Seisakusho K.K.). The auricula swelling rate was then calculated for each group using undermentioned equation 1, and the auricula swelling suppression rate was calculated using undermentioned equation 2. The measurement values were represented by the mean and standard deviation.
# pollinosis symptoms = assay: Pollinosis symptom scores in volunteers drinking astragalin solution; format: in vivo, human volunteers; settings: for Impediment to daily life total point score / Nasal congestion total point score / Nasal discharge total point score / Sneezing total point score: mean of 13 volunteers
# Description: Thirteen volunteers who had previously experienced pollinosis were asked to drink 240 μg of astragalin (in the form of 1 ml of concentrated persimmon leaf extract) dissolved in a suitable amount (50 to 200 ml) of water or hot water twice a day (morning and evening) starting 14 days before the start of the pollen season and ending 14 days after the start of the pollen season.
# Sneezing, nasal discharge, nasal congestion and extent of impediment to daily life were evaluated using a points system both during the 7 days immediately before stopping drinking the astragalin solution (‘while drinking’ below) and during the 7 days immediately after stopping drinking the astragalin solution (‘after stopping drinking’ below).
# For sneezing, 1 point was recorded for each sneeze. For nasal discharge, 1 point was recorded each time the nose was blown. […] For extent of impediment to daily life, 3 points were recorded when one could not settle down to work at all, 2 points were recorded when there was some impediment to working, 1 point was recorded when there was little impediment to working, and 0 points were recorded when there was no impediment to working; points were recorded daily.
# The total point scores for the 7-day ‘while drinking’ period and the 7-day ‘after stopping drinking’ period are shown in Table 1 below as mean values over the 13 volunteers.
# serum IgE level = assay: Intake test using NC/Nga mice: serum IgE level; format: in vivo, NC/Nga male mice; settings: 0.0007% astragalin in diet; end of experiment (13 weeks); control 6,018 ng/ml; difference statistically significant
# Description: (§1) Ten 4-week-old NC/Nga male mice were purchased from Japan SLC, and were reared at a room temperature of 23±3° C. and a humidity of 55±15%, with a 12 hour light-dark cycle (light period 7:00 to 19:00). The mice were kept 5 to a cage, and were fed a standard diet (Labo MR Stock, Nihon Nosan Kogyo K.K.) for a 7-day preliminary period, before being divided into a control group and a group to be administered astragalin, each of 5 mice. The mice were then allowed to eat the following diets ad libitum. Control group: A diet prepared by adding a corn starch (0.0007%, Oriental Enzyme K.K.) to MF powder (Oriental Enzyme K.K.) and then mixing in a mixer.
# (§2) Astragalin-administered group: A diet prepared by adding astragalin (0.0007%) to the MF powder and then mixing in a mixer.
# The serum IgE level was measured at the start of the experiment and then at 2-week intervals until the end of the experiment by collecting blood from the orbit and then using a mouse IgE measurement kit ‘Yamasa’ EIA (lot 702). The serum IgE level measurement values were represented by the mean and standard deviation. The differences between the two groups were tested for statistical significance using t-tests, and a significance level of 5% or less was determined significant.
# [3] = tested on: atopic dermatitis in NC/Nga mice; assay: Intake test using NC/Nga mice: dermal symptoms of atopic dermatitis; format: in vivo, NC/Nga male mice; settings: 0.0007% astragalin in diet ad libitum; end of experiment (13 weeks old); 5 mice; control 4 of 5 developed symptoms
# Description: NC/Nga mice are conventional grade animals, and atopic dermatitis model mice that spontaneously develop atopic dermatitis. Moreover, the development of atopy is accompanied by a rise in serum IgE level.
# as §1, §2
# The following judgement criteria were used.
# Slight inflammation or scratch wounds: 1
# Medium degree inflammation, scratch wounds or bleeding: 2
# Severe inflammation, scratch wounds or bleeding: 3
# For each mouse, the judgement was carried out for each of the head, the shoulders and the back, and then the highest of the three scores was taken as the ‘maximum score’. […]
# [4] = tested on: IL-4 mRNA expression in human basophilic leukemia cell line (KU812); assay: Expression of IL-4 mRNA using RT-PCR in KU812 cells; format: cell-based; settings: A23187 ionophore 1 μM
# Description: A human basophilic leukemia cell line (KU812) was cultured at 37° C. with 5% CO2 in an RPMI 1640 culture medium (Gibco) containing 10% bovine fetal serum (treated at 56° C. for 30 minutes). The KU812 cells (5×10^5 cells/ml) were then stimulated using astragalin (0, 1.1, 3.3 or 11 μM) and an A23187 ionophore (1 μM). After washing, the total RNA was collected using RNAzol (Biotex, USA). 500 ng of the collected total RNA was mixed with an RT mixture (Perkin Elmer Cetus, USA), and then incubation was carried out for 5 minutes at 99° C. followed by 60 minutes at 37° C. After the RT products had been obtained, PCR amplification was carried out using an IL-4-specific primer and β-actin-specific primer. The products were subjected to migration in 2% agarose gel and stained with ethidium bromide, and then the amount of expression was evaluated.
# [5] = after stopping drinking (7 days immediately after)
# [6] = while drinking (7 days before stopping), 240 μg astragalin twice a day, p 0.003
structure (smiles),measurement,setting,value
CNC[C@H](O)c1ccc(O)c(O)c1 [epinephrine],histamine release suppression rate,[1]; 546 μM final concentration,31±3%
same,histamine release suppression rate,[1]; 1639 μM final concentration,55±4%
O=c1c(O)c(-c2ccc(O)cc2)oc2cc(O)cc(O)c12 [kaempferol],histamine release suppression rate,[1]; 11 μM final concentration,31±9%
"O=c1c(O[C@@H]2O[C@H](CO)[C@@H](O)[C@H](O)[C@H]2O)c(-c2ccc(O)cc2)oc2cc(O)cc(O)c12 [astragalin, kaempferol-3-glucoside]",right auricula thickness,"[2]; anti-DNP IgE-injected right auricula, 15 min after DNP-BSA i.v., mean ± SD",0.286±0.017 mm
same,auricula swelling suppression rate,[2]; versus distilled water control,33%
same,auricula swelling rate,[2]; control 27.2±12.5%,18.2±5.0%
same,left auricula thickness,"[2]; saline-injected left auricula, 15 min after DNP-BSA i.v., mean ± SD",0.242±0.013 mm
same,histamine release suppression rate,[1]; 11 μM final concentration,50±7%
same,histamine release suppression action about the same as that of epinephrine of x times the concentration,[1]; astragalin 11 μM versus epinephrine 1639 μM,~150 times
same,Impediment to daily life total point score,pollinosis symptoms; [5],10 ± 10 points
same,Nasal congestion total point score,pollinosis symptoms; [5],13 ± 11 points
same,Nasal discharge total point score,pollinosis symptoms; [5],62 ± 83 points
same,Sneezing total point score,pollinosis symptoms; [5],68 ± 79 points
same,rough skin condition,"pollinosis symptoms; two of the volunteers with rough skin before treatment, while drinking the astragalin solution",improved
same,Sneezing total point score,"pollinosis symptoms; while drinking (7 days before stopping), 240 μg astragalin twice a day as concentrated persimmon leaf extract, p 0.001",23 ± 21 points
same,Nasal congestion total point score,pollinosis symptoms; [6],3 ± 3 points
same,Nasal discharge total point score,pollinosis symptoms; [6],21 ± 26 points
same,Impediment to daily life total point score,"pollinosis symptoms; while drinking (7 days before stopping), 240 μg astragalin twice a day, p 0.005",1 ± 2 points
same,serum IgE level,serum IgE level,"1,225 ng/ml"
same,development of atopic dermatitis symptoms,[3],not one mouse had developed symptoms
same,IL-4 expression,[4]; astragalin 3.3 μM or 11 μM,particularly marked effects
same,IL-4 expression,"[4]; astragalin 1.1, 3.3 or 11 μM",suppressed
